Source: PubChem BioAssay AID330 (DTP/NCI, 2004)
Where “and” joins values, the source holds several entries; their conditions need not be identical. Equal entries are not always repeated. Inconclusive results and toxic doses are left out.

System: P388 leukemia ip, CD2F1 mice, survival T/C
Test: NCI In Vivo Anticancer Drug Screen. Data for tumor model P388 Leukemia (intraperitoneal) in CD2F1 (CDF1) mice
Details: endpoint: median survival time, higher = longer survival
Procedure, shortened: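 Mice carrying the transplanted tumor received test compound or vehicle. Survival was recorded in each group, and the value is the treated-group measurement divided by that of the vehicle-treated control group.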

[1] = dose: 6.25 mg/kg/injection, schedule: Q01DX009 (ip), vehicle: saline with Tween-80
[2] = dose: 50.0 mg/kg/injection, schedule: Q01DX009 (ip), vehicle: saline with Tween-80
[3] = dose: 100.0 mg/kg/injection, schedule: Q01DX009 (ip), vehicle: saline with Tween-80
[4] = dose: 50.0 mg/kg/injection, schedule: Q01DX009 (ip), vehicle: Klucel (hydroxypropylcellulose) (HPC)
[5] = dose: 100.0 mg/kg/injection, schedule: Q01DX009 (ip), vehicle: Klucel (hydroxypropylcellulose) (HPC)
[6] = dose: 200.0 mg/kg/injection, schedule: Q01DX009 (ip), vehicle: Klucel (hydroxypropylcellulose) (HPC)
[7] = dose: 100.0 mg/kg/injection, schedule: Q01DX005 (ip), vehicle: Klucel (hydroxypropylcellulose) (HPC)
[8] = dose: 60.0 mg/kg/injection, schedule: Q01DX005 (ip), vehicle: saline with Tween-80
[9] = dose: 120.0 mg/kg/injection, schedule: Q01DX005 (ip), vehicle: saline with Tween-80
[10] = dose: 240.0 mg/kg/injection, schedule: Q01DX005 (ip), vehicle: saline with Tween-80
[11] = dose: 12.5 mg/kg/injection, schedule: Q01DX005 (ip), vehicle: saline with Tween-80
[12] = dose: 25.0 mg/kg/injection, schedule: Q01DX005 (ip), vehicle: saline with Tween-80
[13] = dose: 50.0 mg/kg/injection, schedule: Q01DX005 (ip), vehicle: saline with Tween-80
[14] = dose: 100.0 mg/kg/injection, schedule: Q01DX005 (ip), vehicle: saline with Tween-80
[15] = dose: 200.0 mg/kg/injection, schedule: Q01DX005 (ip), vehicle: saline with Tween-80

COC1(OC)C2CCC1C(Cl)=C2Cl
T/C (dose: 3.13 mg/kg/injection, schedule: Q01DX009 (ip), vehicle: saline with Tween-80): 93 % of control | T/C (dose: 3.13 mg/kg/injection, schedule: Q01DX009 (ip), vehicle: saline): 108 % of control | T/C [1]: 108 % of control | T/C (dose: 6.25 mg/kg/injection, schedule: Q01DX009 (ip), vehicle: saline): 107 % of control | T/C (dose: 12.5 mg/kg/injection, schedule: Q01DX009 (ip), vehicle: saline): 124 % of control

Cc1cc(C)c(COCc2cc(C)c(C)cc2C)cc1C
T/C (dose: 25.0 mg/kg/injection, schedule: Q01DX009 (ip), vehicle: water): 86 % of control | T/C (dose: 100.0 mg/kg/injection, schedule: Q01DX009 (ip), vehicle: water): 90 % of control | T/C (dose: 200.0 mg/kg/injection, schedule: Q01DX009 (ip), vehicle: water): 106 % of control | T/C (dose: 400.0 mg/kg/injection, schedule: Q01DX009 (ip), vehicle: water): 104 % of control

NS(=O)(=O)/C=C(\Cl)c1ccccc1
T/C (dose: 25.0 mg/kg/injection, schedule: Q01DX009 (ip), vehicle: saline with Tween-80): 102 % of control | T/C [2]: 94 % of control | T/C [3]: 94 % of control

Cc1cc(C)nc(NS(=O)(=O)c2ccc(NC(=O)Nc3cc(F)ccc3F)cc2)n1
T/C [4]: 96 % of control | T/C [5]: 95 % of control | T/C [6]: 91 % of control

CCC(CO)[N-]CC[N-]C(CC)CO.CCC(CO)[N-]CC[N-]C(CC)CO.O.O.[Pd+2].[Pd+2] (centres undefined)
T/C (dose: 50.0 mg/kg/injection, schedule: Q01DX005 (ip), vehicle: Klucel (hydroxypropylcellulose) (HPC)): 91 % of control | T/C [7]: 97 % of control | T/C (dose: 200.0 mg/kg/injection, schedule: Q01DX005 (ip), vehicle: Klucel (hydroxypropylcellulose) (HPC)): 98 % of control

CCc1nc(N)nc(N)c1-c1ccc(NC)c([N+](=O)[O-])c1
T/C [7]: 182 % of control

CN=C(NCCSCc1ccc2ccccc2n1)NCc1ccccc1
T/C (dose: 12.5 mg/kg/injection, schedule: Q01DX005 (ip), vehicle: saline): 98 % of control | T/C (dose: 25.0 mg/kg/injection, schedule: Q01DX005 (ip), vehicle: saline): 109 % of control | T/C (dose: 50.0 mg/kg/injection, schedule: Q01DX005 (ip), vehicle: saline): 101 % of control

COc1ccc(-n2cccc2/C=N\O)cc1OC
T/C [8]: 93 % of control | T/C [9]: 94 % of control | T/C [10]: 93 % of control

O=P(CSCCO)(c1ccccc1)c1ccccc1
T/C [8]: 89 % of control | T/C [9]: 93 % of control | T/C [10]: 97 % of control

COc1cc(NC(C)=O)c(OC)c2c(Cl)ccnc12
T/C (dose: 100.0 mg/kg/injection, schedule: Q01DX001 (ip), vehicle: acid diluted with saline): 101 % of control | T/C (dose: 200.0 mg/kg/injection, schedule: Q01DX001 (ip), vehicle: acid diluted with saline): 99 % of control

C=COC(=O)C(Cc1ccccc1)NC(=O)OCc1ccccc1 (centres undefined)
T/C [11]: 106 % of control | T/C [12]: 100 % of control | T/C [13]: 103 % of control | T/C [14]: 103 % of control | T/C [15]: 100 % of control

COC1=CC2(C=CC1=O)CCC(=O)O2 (centres undefined)
T/C [11]: 119 % of control | T/C [12]: 111 % of control | T/C [13]: 115 % of control and 113 % of control | T/C [14]: 108 % of control

C/C=C/C1OC(=O)C=C1Sc1ccccc1 (centres undefined)
T/C [13]: 114 % of control | T/C [14]: 117 % of control | T/C [15]: 114 % of control

CN(C)c1ccc(/C=C/c2ccnc3c2ccc2ccccc23)cc1
T/C (dose: 37.5 mg/kg/injection, schedule: Q04DX003 (ip), vehicle: Klucel (hydroxypropylcellulose) (HPC)): 108 % of control | T/C (dose: 50.0 mg/kg/injection, schedule: Q01DX001 (ip), vehicle: saline with Tween-80): 106 % of control | T/C (dose: 75.0 mg/kg/injection, schedule: Q04DX003 (ip), vehicle: Klucel (hydroxypropylcellulose) (HPC)): 89 % of control | T/C (dose: 100.0 mg/kg/injection, schedule: Q01DX001 (ip), vehicle: saline with Tween-80): 93 % of control | T/C (dose: 150.0 mg/kg/injection, schedule: Q04DX003 (ip), vehicle: Klucel (hydroxypropylcellulose) (HPC)): 103 % of control | T/C (dose: 200.0 mg/kg/injection, schedule: Q01DX001 (ip), vehicle: saline with Tween-80): 91 % of control | T/C (dose: 300.0 mg/kg/injection, schedule: Q04DX003 (ip), vehicle: Klucel (hydroxypropylcellulose) (HPC)): 96 % of control | T/C (dose: 400.0 mg/kg/injection, schedule: Q01DX001 (ip), vehicle: saline with Tween-80): 91 % of control

c1ccc2c3c(cc(CNCCNCc4cc5c(c6ccccc46)CCCC5)c2c1)CCCC3
T/C [13]: 87 % of control | T/C [14]: 96 % of control | T/C [15]: 110 % of control

COc1cc(/C=C/C(=O)NCCCCN)ccc1O
T/C [8]: 105 % of control | T/C [9]: 101 % of control | T/C [10]: 95 % of control

Clc1nc(Cl)c2c3c(sc2n1)CCCC3
T/C (dose: 60.0 mg/kg/injection, schedule: Q01DX005 (ip), vehicle: Klucel (hydroxypropylcellulose) (HPC)): 91 % of control | T/C (dose: 120.0 mg/kg/injection, schedule: Q01DX005 (ip), vehicle: Klucel (hydroxypropylcellulose) (HPC)): 90 % of control | T/C (dose: 240.0 mg/kg/injection, schedule: Q01DX005 (ip), vehicle: Klucel (hydroxypropylcellulose) (HPC)): 99 % of control

Nc1ncnc2c1ccn2C1OC2COP(=O)(O)OC2C1O (centres undefined)
T/C (dose: 0.13 mg/kg/injection, schedule: Q03HX024 (ip), vehicle: saline): 90 % of control | T/C (dose: 0.25 mg/kg/injection, schedule: Q03HX024 (ip), vehicle: saline): 104 % of control | T/C (dose: 0.5 mg/kg/injection, schedule: Q03HX024 (ip), vehicle: saline): 100 % of control | T/C (dose: 1.0 mg/kg/injection, schedule: Q01DX009 (ip), vehicle: saline): 100 % of control | T/C (dose: 1.0 mg/kg/injection, schedule: Q03HX024 (ip), vehicle: saline): 122 % of control | T/C (dose: 1.0 mg/kg/injection, schedule: Q04DX003 (ip), vehicle: saline): 104 % of control | T/C (dose: 2.0 mg/kg/injection, schedule: Q01DX001 (ip), vehicle: saline): 100 % of control | T/C (dose: 2.0 mg/kg/injection, schedule: Q01DX009 (ip), vehicle: saline): 104 % of control | T/C (dose: 2.0 mg/kg/injection, schedule: Q04DX003 (ip), vehicle: saline): 100 % of control | T/C (dose: 4.0 mg/kg/injection, schedule: Q01DX001 (ip), vehicle: saline): 100 % of control | T/C (dose: 4.0 mg/kg/injection, schedule: Q04DX003 (ip), vehicle: saline): 104 % of control | T/C (dose: 8.0 mg/kg/injection, schedule: Q01DX001 (ip), vehicle: saline): 109 % of control | T/C (dose: 8.0 mg/kg/injection, schedule: Q01DX009 (ip), vehicle: saline): 95 % of control | T/C (dose: 8.0 mg/kg/injection, schedule: Q04DX003 (ip), vehicle: saline): 113 % of control | T/C (dose: 16.0 mg/kg/injection, schedule: Q01DX001 (ip), vehicle: saline): 118 % of control

COC(=O)C1=C(C(=O)OC)CC(n2nnc(C(=O)OC)c2C(=O)OC)=CC1
T/C [8]: 92 % of control | T/C [9]: 101 % of control | T/C [10]: 99 % of control

CC(=O)OC1C(=O)C(C)(C)CN(C(C)(C)C)CC1(C)C (centres undefined)
T/C (dose: 50.0 mg/kg/injection, schedule: Q01DX001 (ip), vehicle: saline sonified): 100 % of control | T/C (dose: 100.0 mg/kg/injection, schedule: Q01DX001 (ip), vehicle: saline sonified): 104 % of control | T/C (dose: 200.0 mg/kg/injection, schedule: Q01DX001 (ip), vehicle: saline sonified): 95 % of control

CCCCCCC(=O)C(=O)c1ccc(O)c(C)c1O
T/C [4]: 89 % of control | T/C [5]: 93 % of control | T/C [6]: 93 % of control

O=S(=O)(O)O.[NH-]CC[NH-].[Pt+2]
T/C (dose: 6.25 mg/kg/injection, schedule: Q04DX002 (ip), vehicle: saline): 168 % of control | T/C (dose: 12.5 mg/kg/injection, schedule: Q04DX002 (ip), vehicle: saline): 97 % of control

O=C1C2(CC3C=CC2C3)C(=O)C12CC1C=CC2C1 (centres undefined)
T/C [2]: 102 % of control | T/C [3]: 100 % of control | T/C (dose: 200.0 mg/kg/injection, schedule: Q01DX009 (ip), vehicle: saline with Tween-80): 103 % of control

[N-]=[N+]=Nc1ccnc2ccc(C3CCCCC3)cc12
T/C [8]: 100 % of control | T/C [9]: 92 % of control | T/C [10]: 100 % of control

CSC(=S)N/N=C(\c1ccccc1)c1ccccn1
T/C [1]: 96 % of control | T/C (dose: 12.5 mg/kg/injection, schedule: Q01DX009 (ip), vehicle: saline with Tween-80): 89 % of control and 97 % of control | T/C [2]: 92 % of control
